In patent US20100004459A1, “2-PHENYLNICOTINIC ACID DERIVATIVE” (NIPPON ZOKI PHARMACEUTICAL CO., LTD., priority 2006, published 2010):

How the values were obtained:
[1] = tested on: model rats of fructose-loaded hypertriglyceridemia; assay: Model rats of fructose-loaded hypertriglyceridemia: action for lowering of triglyceride in serum; format: in vivo; conditions: Rattus norvegicus, po; male SD rats, 75% fructose solution for three days; 100 mg/kg orally once daily; serum 2 hours after final administration; read-out: Inhibition Rate (%) Action for lowering of triglyceride
Method: (§1) The test was conducted according to a method of Kusama, et al. (Folia Pharmacologica Japonica, volume 92, pages 175 to 180, 1988). Thus, male rats of SD strain of 6 to 7 weeks age were made in free access to a 75% (w/v) D(−)-fructose solution for three days. During the period of fructose ingestion, a test substance (100 mg/kg) was suspended in 1% methyl cellulose and orally administered once daily. After 2 hours from the final administration, about 500 μL per rat of blood was collected using a hematocrit capillary from orbital venous plexus under anesthetization with ether and centrifuged (3000 rpm at 4° C. for 20 minutes) whereupon the serum was prepared.
(1) Action for Lowering of Triglyceride in Serum
The triglyceride (TG) in the serum was measured by a Triglyceride E-Test Wako (manufactured by Wako Pure Chemical Industries, Ltd.) and each TG lowering rate was determined by the following formula.
TG Lowering Rate(%)={[(TG Value of Control Animal)−(TG Value of Animal Administered with Test Substance)]/[(TG Value of Control Animal)-(TG Value of Untreated Animal)]}×100

[2] = target: T1, xanthine oxidase (Bos taurus, UniProt P80457); assay: Test for xanthine oxidase inhibitory activity; format: biochemical; conditions: xanthine oxidase derived from milk (Sigma); substrate xanthine; uric acid production at OD 292 nm, 37° C.
T1 construct: derived from milk; manufactured by Sigma; purchased Sigma; host or cells: milk (natural source)
T1 sequence (P80457 whole entry): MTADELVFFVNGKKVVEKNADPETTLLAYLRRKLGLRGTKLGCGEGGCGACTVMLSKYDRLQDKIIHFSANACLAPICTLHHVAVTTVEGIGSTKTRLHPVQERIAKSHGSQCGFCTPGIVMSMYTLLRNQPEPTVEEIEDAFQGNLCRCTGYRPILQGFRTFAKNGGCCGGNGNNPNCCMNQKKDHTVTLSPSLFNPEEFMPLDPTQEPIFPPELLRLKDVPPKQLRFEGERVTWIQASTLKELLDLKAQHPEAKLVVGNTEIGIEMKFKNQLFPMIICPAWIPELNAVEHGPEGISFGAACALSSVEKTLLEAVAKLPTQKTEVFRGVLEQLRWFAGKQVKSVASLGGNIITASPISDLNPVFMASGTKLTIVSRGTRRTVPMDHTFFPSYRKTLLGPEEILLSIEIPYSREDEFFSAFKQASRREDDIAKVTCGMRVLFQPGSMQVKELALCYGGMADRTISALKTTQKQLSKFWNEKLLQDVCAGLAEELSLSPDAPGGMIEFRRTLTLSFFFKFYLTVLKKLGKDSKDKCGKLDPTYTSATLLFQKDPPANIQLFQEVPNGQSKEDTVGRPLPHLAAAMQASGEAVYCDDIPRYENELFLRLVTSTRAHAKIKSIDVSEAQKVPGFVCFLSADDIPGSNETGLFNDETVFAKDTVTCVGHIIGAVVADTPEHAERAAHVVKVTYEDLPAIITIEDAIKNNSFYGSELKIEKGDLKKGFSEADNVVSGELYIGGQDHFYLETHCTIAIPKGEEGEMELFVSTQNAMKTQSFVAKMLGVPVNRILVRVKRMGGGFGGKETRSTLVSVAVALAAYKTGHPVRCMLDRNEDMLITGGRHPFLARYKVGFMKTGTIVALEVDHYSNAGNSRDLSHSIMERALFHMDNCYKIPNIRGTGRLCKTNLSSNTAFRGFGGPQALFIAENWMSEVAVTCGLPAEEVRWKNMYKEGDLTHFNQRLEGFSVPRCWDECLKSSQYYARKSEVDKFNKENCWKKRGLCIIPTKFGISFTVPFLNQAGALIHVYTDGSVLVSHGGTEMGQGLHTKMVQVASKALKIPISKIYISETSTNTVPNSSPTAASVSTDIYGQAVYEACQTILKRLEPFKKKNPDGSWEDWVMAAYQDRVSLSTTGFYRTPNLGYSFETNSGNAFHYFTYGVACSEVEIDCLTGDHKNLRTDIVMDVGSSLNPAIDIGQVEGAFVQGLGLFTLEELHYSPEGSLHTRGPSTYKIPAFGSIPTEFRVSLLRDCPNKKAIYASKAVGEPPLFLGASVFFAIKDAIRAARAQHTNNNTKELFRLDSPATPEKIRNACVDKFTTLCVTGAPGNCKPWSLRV
Method: Evaluation of inhibitory activity of the present invention to xanthine oxidase was conducted using xanthine as a substrate by measuring the amount of uric acid produced by xanthine oxidase which is an oxidizing enzyme therefor. Thus, xanthine oxidase (0.01 unit/L, 20 μL/well; derived from milk; manufactured by Sigma), diethylenetriamine pentaacetate (0.01 mol/L, 20 μL/well), phosphate buffer (20 μL/well), distilled water (100 μL/well) and a diluted solution (20 μL/well) of a test substance were mixed in a 96-well quartz microplate. After preincubating for 5 minutes in a microplate spectrophotometer warmed at 37° C., xanthine (1 mmol/L, 20 μL/well) was added. The changes with elapse of time in OD 292 nm based on the production of uric acid was measured using a microplate spectrophotometer warmed at 37° C. whereby the initial reaction velocity was measured. Xanthine oxidase inhibitory activity was calculated by the following formula and concentration of the test substance for 50% suppression (IC50 value) was calculated.
Inhibition Rate(%)={[(Initial Reaction Velocity of the Reaction Control)-(Initial Reaction Velocity upon Addition of Test Substance)]/[Initial Reaction Velocity of the Reaction Control]}×100

[3] = tested on: model rats of fructose-loaded hypertriglyceridemia; assay: Model rats of fructose-loaded hypertriglyceridemia: action for lowering of uric acid in serum; format: in vivo; conditions: Rattus norvegicus, po; male SD rats, 75% fructose solution for three days; 100 mg/kg orally once daily; serum 2 hours after final administration; read-out: Inhibition Rate (%) Action for lowering of uric acid
Method: as §1
(2) Action for Lowering of Uric Acid in Serum
Uric acid value in the serum was measured by a Uric acid C-Test Wako (manufactured by Wako Pure Chemical Industries, Ltd.) using the above serum and each uric acid lowering rate was determined by the following formula.
Uric Acid Lowering Rate(%)={[(Uric Acid Value of Control Animal)-(Uric Acid Value of Animals Administered with Test Substance)]/[Uric Acid Value of Control Animal]}×100

Row | IC50 [2] [nM] | melting point [°C] | Structure (SMILES) | inhibition in vivo at 100 mg/kg [1] [%] | inhibition in vivo at 100 mg/kg [3] [%]
1 | 65 |  | N#Cc1cc(-c2ncccc2C(=O)O)ccc1OCCc1ccccc1Cl [Example 100, 2-{4-[2-(2-Chlorophenyl)ethoxy]-3-cyanophenyl}nicotinic acid] | 40.8 | 58.2
2 | 24 | 100 to 101 | CC1(COc2ccc(-c3ncccc3C(=O)O)cc2C#N)CCCCC1 [Example 77, 2-[3-Cyano-4-(1-methylcyclohexylmethoxy)phenyl]nicotinic acid] | 39.6 | 27.8
3 | 24 | 220 to 221 | N#Cc1cc(-c2ncccc2C(=O)O)ccc1OCC1CCCCC1 [Example 47, 2-(3-Cyano-4-cyclohexylmethoxyphenyl)nicotinic acid] | 46.3 | 52.6
4 | 53 |  | Cc1ccccc1CCOc1ccc(-c2ncccc2C(=O)O)cc1C#N [Example 102, 2-[3-Cyano-4-(2-methylphenethyloxy)-phenyl]nicotinic acid] | 28.4 | 25.2
5 | 36 | 187 to 188 | N#Cc1cc(-c2ncccc2C(=O)O)ccc1OCCc1ccccc1C(F)(F)F [Example 56] | 72.1 | 38.7
6 | 24 | 227 to 228 | N#Cc1cc(-c2ncccc2C(=O)O)ccc1OCC1CCCC1 [Example 75, 2-(3-Cyano-4-cyclopentylmethoxyphenyl)nicotinic acid] | 25.7 | 49.5
7 | 42 | 183 to 184 | N#Cc1cc(-c2ncccc2C(=O)O)ccc1OCCCc1ccc(C(F)(F)F)cc1 [Example 59, 2-{3-Cyano-4-[3-(4-trifluoromethylphenyl)propoxy]phenyl}nicotinate] | 53.2 | 29.3
8 |  | 221 to 222 | CC(C)(COc1ccc(-c2ncccc2C(=O)O)cc1C#N)c1ccccc1 [Example 78, 2-[3-Cyano-4-(2-methyl-2-phenylpropoxy)phenyl]nicotinic acid] | 21.6 | 19.4
9 | 42 | 231 to 232 | CC(C)(C)COc1ccc(-c2ncccc2C(=O)O)cc1C#N [Example 83, 2-[3-Cyano-4-(2,2-dimethylpropoxy)phenyl]nicotinic acid] | 112 | 56.6
10 | 58 | 159 to 160 | N#Cc1cc(-c2ncccc2C(=O)O)ccc1OCCCOc1ccc(OC(F)(F)F)cc1Cl [Example 69, 2-{4-[3-(2-Chloro-4-trifluoromethoxyphenoxy)propoxy]-3-cyanophenyl}nicotinic acid] |  | 

Row | Structure (SMILES) | IC50 [2] [nM] | melting point [°C] | inhibition in vivo at 100 mg/kg [1] [%] | inhibition in vivo at 100 mg/kg [3] [%]
11 | N#Cc1cc(-c2ncccc2C(=O)O)ccc1OCCCCc1ccccc1 [Example 62, 2-[3-Cyano-4-(4-phenylbutoxy)phenyl]nicotinic acid] | 27 | 163 to 164 | 71.1 | 43.6
12 | CC(C)(C)CCOc1ccc(-c2ncccc2C(=O)O)cc1C#N [Example 84, 2-[3-Cyano-4-(3,3-dimethylbutoxy)phenyl]nicotinic acid] | 18 | 206 to 207 | 41.4 | 69.2
13 | CCC(C)(C)COc1ccc(-c2ncccc2C(=O)O)cc1C#N [Example 72, 2-[3-Cyano-4-(2,2-dimethylbutoxy)phenyl]nicotinic acid] | 28 | 166 to 167 | 34.2 | 48.5
